Several values for one entry are separate records, joined by “and”; a condition that tells them apart may be missing. Identical values can stand only once. Results filed as inconclusive are left out.
Tested on: BDF1 mice, s.c. Lewis lung carcinoma, T/C %
Assay: NCI In Vivo Anticancer Drug Screen. Data for tumor model Lewis Lung Carcinoma (subcutaneous) in B6D2F1 (BDF1) mice
In short: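 The value reflects a ratio in which the treated cohort's survival time or tumour size is compared against mice receiving only vehicle.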

[1] = endpoint: median survival time, dose: 1.56 mg/kg/injection, schedule: Q01DX009 (ip), vehicle: Klucel (hydroxypropylcellulose) (HPC), higher = longer survival

N[C@H](C(=O)O)[C@@H]1CC(Cl)=NO1
T/C (endpoint: median survival time, dose: 2.5 mg/kg/injection, schedule: Q01DX005 (ip), vehicle: saline, higher = longer survival): 92 % of control
T/C (endpoint: median survival time, dose: 5.0 mg/kg/injection, schedule: Q01DX005 (ip), vehicle: saline, higher = longer survival): 67 % of control
T/C (endpoint: median survival time, dose: 10.0 mg/kg/injection, schedule: Q01DX005 (ip), vehicle: saline, higher = longer survival): 111 % of control
T/C (endpoint: median survival time, dose: 20.0 mg/kg/injection, schedule: Q01DX005 (ip), vehicle: saline, higher = longer survival): 62 % of control
T/C (endpoint: median survival time, dose: 25.9 mg/kg/injection, schedule: Q04DX002 (ip), vehicle: saline, higher = longer survival): 114 % of control and 121 % of control
T/C (endpoint: median survival time, dose: 43.2 mg/kg/injection, schedule: Q04DX002 (ip), vehicle: saline, higher = longer survival): 111 % of control and 112 % of control
T/C (endpoint: median survival time, dose: 72.0 mg/kg/injection, schedule: Q04DX002 (ip), vehicle: saline, higher = longer survival): 106 % of control and 107 % of control
T/C (endpoint: median survival time, dose: 200.0 mg/kg/injection, schedule: Q04DX002 (ip), vehicle: saline, higher = longer survival): 100 % of control and 102 % of control
T/C (endpoint: median survival time, dose: 2.5 ml/mouse/injection, schedule: Q01DX005 (ip), vehicle: saline, higher = longer survival): 92 % of control
T/C (endpoint: median survival time, dose: 5.0 ml/mouse/injection, schedule: Q01DX005 (ip), vehicle: saline, higher = longer survival): 68 % of control
T/C (endpoint: median survival time, dose: 10.0 ml/mouse/injection, schedule: Q01DX005 (ip), vehicle: saline, higher = longer survival): 108 % of control

N=C(N)N
T/C (endpoint: mean tumor weight, dose: 100.0 mg/kg/injection, schedule: Q01DX011 (ip), vehicle: saline, higher = larger tumour): 114 % of control
T/C (endpoint: mean tumor weight, dose: 200.0 mg/kg/injection, schedule: Q01DX011 (ip), vehicle: saline, higher = larger tumour): 89 % of control

C[CH2][Pb]([CH2]C)([CH2]C)[O]C(=O)COC
T/C [1]: 92 % of control
T/C (endpoint: median survival time, dose: 3.13 mg/kg/injection, schedule: Q01DX009 (ip), vehicle: Klucel (hydroxypropylcellulose) (HPC), higher = longer survival): 96 % of control

ClCCCN1CCCCC1CCl (stereo not drawn)
T/C (endpoint: median survival time, dose: 3.12 mg/kg/injection, schedule: Q04DX003 (ip), vehicle: saline, higher = longer survival): 96 % of control
T/C (endpoint: median survival time, dose: 6.25 mg/kg/injection, schedule: Q04DX003 (ip), vehicle: saline, higher = longer survival): 113 % of control
T/C (endpoint: median survival time, dose: 12.5 mg/kg/injection, schedule: Q04DX003 (ip), vehicle: saline, higher = longer survival): 104 % of control

CCN(C=O)CC
T/C (endpoint: mean tumor weight, dose: 88.0 mg/kg/injection, schedule: Q01DX011 (ip), vehicle: other, higher = larger tumour): 89 % of control
T/C (endpoint: mean tumor weight, dose: 133.0 mg/kg/injection, schedule: Q01DX011 (ip), vehicle: other, higher = larger tumour): 102 % of control
T/C (endpoint: mean tumor weight, dose: 200.0 mg/kg/injection, schedule: Q01DX011 (ip), vehicle: other, higher = larger tumour): 68 % of control
T/C (endpoint: mean tumor weight, dose: 300.0 mg/kg/injection, schedule: Q01DX011 (ip), vehicle: other, higher = larger tumour): 87 % of control
T/C (endpoint: mean tumor weight, dose: 300.0 mg/kg/injection, schedule: Q01DX011 (ip), vehicle: saline, higher = larger tumour): 65 % of control
T/C (endpoint: mean tumor weight, dose: 600.0 mg/kg/injection, schedule: Q01DX011 (ip), vehicle: saline, higher = larger tumour): 62 % of control
T/C (endpoint: mean tumor weight, dose: 900.0 mg/kg/injection, schedule: Q01DX011 (ip), vehicle: saline, higher = larger tumour): 90 % of control

Cc1ccnc(NS(=O)(=O)c2ccc(N=Nc3nc4[nH]c(N)nc(=S)c4[nH]3)cc2)n1
T/C (endpoint: median survival time, dose: 0.19 mg/kg/injection, schedule: Q01DX009 (ip), vehicle: Klucel (hydroxypropylcellulose) (HPC), higher = longer survival): 106 % of control
T/C (endpoint: median survival time, dose: 0.39 mg/kg/injection, schedule: Q01DX009 (ip), vehicle: Klucel (hydroxypropylcellulose) (HPC), higher = longer survival): 94 % of control
T/C (endpoint: median survival time, dose: 0.78 mg/kg/injection, schedule: Q01DX009 (ip), vehicle: Klucel (hydroxypropylcellulose) (HPC), higher = longer survival): 97 % of control
T/C [1]: 87 % of control and 103 % of control

Cc1ccc(N=NN(C)C)cc1
T/C (endpoint: mean tumor weight, dose: 15.0 mg/kg/injection, schedule: Q01DX011 (ip), vehicle: other, higher = larger tumour): 67 % of control
T/C (endpoint: mean tumor weight, dose: 60.0 mg/kg/injection, schedule: Q01DX011 (ip), vehicle: other, higher = larger tumour): 57 % of control

CC(C)(c1ccccc1)c1ccc(O)cc1
T/C (endpoint: mean tumor weight, dose: 45.0 mg/kg/injection, schedule: Q01DX011 (ip), vehicle: carboxymethylcellulose (CMC), higher = larger tumour): 82 % of control
T/C (endpoint: mean tumor weight, dose: 65.0 mg/kg/injection, schedule: Q01DX011 (ip), vehicle: carboxymethylcellulose (CMC), higher = larger tumour): 60 % of control

CC1CCC2(OC1)OC1C(O)C3C4CCC5CC(OC6OC(CO)C(OC7OC(CO)C(O)C(OC8OCC(O)C(O)C8O)C7OC7OC(CO)C(O)C(OC8OC(CO)C(O)C(O)C8O)C7O)C(O)C6O)C(O)CC5(C)C4CCC3(C)C1C2C (stereo not drawn)
T/C (endpoint: mean tumor weight, dose: 6.2 mg/kg/injection, schedule: Q01DX011 (ip), vehicle: carboxymethylcellulose (CMC), higher = larger tumour): 47 % of control and 58 % of control
T/C (endpoint: mean tumor weight, dose: 12.5 mg/kg/injection, schedule: Q01DX011 (ip), vehicle: carboxymethylcellulose (CMC), higher = larger tumour): 93 % of control and 98 % of control
T/C (endpoint: median survival time, dose: 1.25 mg/kg/injection, schedule: Q01DX009 (ip), vehicle: saline, higher = longer survival): 115 % of control
T/C (endpoint: median survival time, dose: 2.5 mg/kg/injection, schedule: Q01DX009 (ip), vehicle: saline, higher = longer survival): 122 % of control
T/C (endpoint: median survival time, dose: 5.0 mg/kg/injection, schedule: Q01DX009 (ip), vehicle: saline, higher = longer survival): 111 % of control

From PubChem BioAssay AID270 (DTP/NCI, 2004)
